PubChem BioAssay (NCI)
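These data come from cells grown in 96-well plates and exposed to compound for 48 hours at five concentrations. The concentration for 50% growth inhibition is given as GI50. Definition used: TGI = concentration required for complete inhibition of growth.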

Experiments:
Assay in all cases: growth of human tumour cells (NCI), 48 h
DU-145 prostate = test system: DU-145 prostate
A498 renal = test system: A498 renal
SK-MEL-5 melanoma = test system: SK-MEL-5 melanoma
SK-MEL-2 melanoma = test system: SK-MEL-2 melanoma
MALME-3M melanoma = test system: MALME-3M melanoma
HS 578T breast = test system: HS 578T breast
SF-295 CNS = test system: SF-295 CNS
A549 NSCLC = test system: A549 NSCLC
M14 melanoma = test system: M14 melanoma
T-47D breast = test system: T-47D breast

| Compound | GI50 (DU-145 prostate) [µM] | TGI (DU-145 prostate) [µM] | GI50 (A498 renal) [µM] | TGI (A498 renal) [µM] | GI50 (SK-MEL-5 melanoma) [µM] | TGI (SK-MEL-5 melanoma) [µM] | GI50 (SK-MEL-2 melanoma) [µM] | TGI (SK-MEL-2 melanoma) [µM] | GI50 (MALME-3M melanoma) [µM] | TGI (MALME-3M melanoma) [µM] | GI50 (HS 578T breast) [µM] | TGI (HS 578T breast) [µM] | GI50 (SF-295 CNS) [µM] | TGI (SF-295 CNS) [µM] | GI50 (A549 NSCLC) [µM] | TGI (A549 NSCLC) [µM] | GI50 (M14 melanoma) [µM] | TGI (M14 melanoma) [µM] | GI50 (T-47D breast) [µM] | TGI (T-47D breast) [µM] |
| --- | --- | --- | --- | --- | --- | --- | --- | --- | --- | --- | --- | --- | --- | --- | --- | --- | --- | --- | --- | --- |
| Cc1ccc(N)cc1[As]=[As]c1cc(N)ccc1C (stereo not given) | 1.81 | 3.23 | 1.29 | 2.64 | 1.51 | 2.91 | 1.97 | 3.54 | 0.679 | 2.03 | 2.81 | > 100 | 4.6 | 12.3 | 4.36 | 20 | 1.71 | 3.4 | – | – |
| Cc1ccc(S(=O)(=O)OCOS(=O)(=O)c2ccc(C)cc2)cc1 | – | – | – | – | – | > 100 | – | > 100 | – | > 100 | – | – | – | > 100 | – | > 100 | – | > 100 | – | – |
| CCOC(=O)C1=C(OC(OCC)C([Se]c2ccccc2)C(C)C)CCC1 (stereo not given) | – | – | – | > 100 | – | 28.8 | – | 62 | – | 81.9 | – | – | – | 44.5 | – | > 100 | – | 43.6 | – | – |
| N#C/C(=C\c1c(O)cc(O)cc1O)C(N)=O | – | – | – | > 100 | – | > 100 | – | > 100 | – | > 100 | – | – | – | > 100 | – | > 100 | – | > 100 | – | – |
| COc1cc(C(=O)/C=C/c2cc(-c3ccc4c(c3)OCO4)n[nH]2)cc(OC)c1OC | 2.92 | 9.16 | 1.75 | 4.65 | 3.32 | 13.3 | – | – | 1.85 | 4.69 | 3.14 | 20.5 | 2.58 | 10.1 | 2.13 | 6.23 | 2.91 | 9.2 | 1.51 | 4.63 |
| CCC12C=CCN(CCc3c([nH]c4ccccc34)/C=C\1)C2 (stereo not given) | – | – | – | > 100 | – | > 100 | – | > 100 | – | > 100 | – | – | – | > 100 | – | > 100 | – | > 100 | – | – |
| COC(=O)C1C(C(=O)O)C2(c3ccccc3)C(=O)C1(c1ccccc1)C(c1ccccc1)=C2c1ccccc1 (stereo not given) | 16.9 | 34 | 15.2 | 29.3 | 12.9 | 27.6 | 16.5 | 34.1 | 26.8 | 59.3 | 23.4 | 58 | 22.9 | 71.2 | 19.8 | 39.1 | 19.6 | 35.7 | – | – |
| CN(C)NC(=O)/C(=C/c1ccc(Cl)cc1)NC(=O)c1ccccc1 | – | – | – | > 100 | – | > 100 | – | > 100 | – | > 100 | – | – | – | > 100 | – | > 100 | – | > 100 | – | – |
| O=C(NC1CC1)c1c(O)[nH]c(=S)[nH]c1=O | – | – | – | > 100 | – | > 100 | – | > 100 | – | > 100 | – | – | – | > 100 | – | > 100 | – | > 100 | – | – |
| COC(=O)c1c(O)ccc(O)c1C(C(C)=O)C(C)=O | – | – | – | > 100 | – | > 100 | – | > 100 | – | > 100 | – | – | – | > 100 | – | > 100 | – | > 100 | – | – |
| CCOC(=O)c1cc(=O)n(C)c(=O)n1C | – | – | – | > 100 | – | > 100 | – | > 100 | – | > 100 | – | – | – | > 100 | – | > 100 | – | > 100 | – | – |
| Cc1ccccc1NC(=O)Cc1nc2ccccc2s1 | – | – | – | 35.7 | – | > 100 | – | 29.9 | – | 30 | – | – | – | 29.2 | – | 33.6 | – | 25.2 | – | – |
| Nc1cccc2c1-c1c(cccc1[N+](=O)[O-])C2=O | – | – | – | > 100 | – | > 100 | – | – | – | > 100 | – | – | – | > 100 | – | > 100 | – | > 100 | – | – |
| Cn1[nH]cc2ccc3nc4ccccc4c(=O)c3c21 | – | – | – | 67.7 | – | 35.1 | – | > 100 | – | 68.7 | – | – | – | > 96.3 | – | > 66 | – | > 100 | – | – |
| C/C=C/C(=O)Oc1cccc2cccnc12 | – | – | – | – | – | 51 | – | – | – | 8.94 | – | – | – | > 100 | – | > 100 | – | 12 | – | – |
| COc1cccc(Nc2ncnc3cc(NC(=O)CCl)ccc23)c1 | 1.23 | 2.6 | 1.72 | 3.81 | 1.25 | 2.55 | 1.69 | 3.48 | 1.07 | 2.51 | 1.84 | 8.15 | 1.68 | 3.19 | 1.48 | 3.11 | 1.39 | 3 | – | – |
| CN(C)NC1=C([N+](=O)[O-])C=NN(c2ccccc2)C1 | – | – | – | 36 | – | 6.41 | – | 3.21 | – | 3.63 | – | – | – | 3.2 | – | 3.87 | – | 3.23 | – | – |
| COc1cc(-c2nn(-c3ccc(NC(=O)Nc4cc(C(F)(F)F)cc(C(F)(F)F)c4)cc3)cc2-c2ccncc2)ccc1Cl | 3.39 | 11.2 | 1.81 | 3.79 | 1.53 | 2.98 | 1.7 | 3.43 | – | – | 2.94 | > 100 | 1.1 | 2.63 | 2.47 | 13 | 1.99 | 4.23 | 1.96 | 7.77 |
| O=C(O)c1ccc2c(c1)C(=O)N(c1ccc(S(=O)(=O)c3ccc(N4C(=O)c5ccc(C(=O)O)cc5C4=O)cc3)cc1)C2=O | – | – | – | > 100 | – | > 100 | – | > 100 | – | > 100 | – | – | – | > 100 | – | > 100 | – | > 100 | – | – |
| O=C(/C=C/c1ccccc1)c1cccc2ccccc12 | 3.63 | 13 | 2.3 | 6.75 | 2.98 | 11.7 | 2.97 | 8.3 | 6.12 | 22.4 | 5.43 | > 100 | – | – | 2.96 | 10.3 | 2.39 | 5.19 | 2.89 | 21.2 |
| O=c1nc2sc3ccccc3c(=O)n2[nH]1 | – | – | – | – | – | > 100 | – | > 100 | – | > 100 | – | – | – | > 100 | – | > 100 | – | > 100 | – | – |
| COc1ccc(CN2C(=O)[C@@H]3Cc4c(OC)c(C)c(OC)c(OC)c4[C@H](/C2=C\c2cc(OC)c(OC)c(C)c2OC)N3C(=O)OC(C)C)cc1 | – | – | – | > 100 | – | > 100 | – | > 100 | – | > 100 | – | – | – | > 100 | – | > 100 | – | > 100 | – | – |
